Test results published in patent US8940865B2, “Myocardial peptide, preparation method and uses thereof” (Dalian Zhen-Ao Pharmaceutical Co, Ltd., priority 2008, dated 2015).

How the values were obtained:
[1] = system: ischemia/reperfusion damaged rat; assay: Preventive administration, ischemia/reperfusion (LAD ligation) rat model; format: in vivo, SD rat; settings: preventive i.v. 30 min before ligation; for MIS (myocardial infarct size): ischemic area weight/whole heart weight; for CK / LDH / MDA / SOD: rat serum
Protocol: 70 SD rats (250˜300 g per rat) were taken, wherein, 60 rats were divided into 6 groups evenly and randomly according to weight, every 10 of each group, the remains are kept for replacement of dead animals of each group.
Normal Control Group: carrying out sham operation, threading a silk suture through the left anterior descending coronary artery (LAD) without ligation;
Model Group: intravenous injecting saline solution of 5 ml/kg 30 minutes before ligation, and the preparation of hypoxia/reoxygenation model is the same as Normal Control Group;
Positive Control Group: intravenous injecting Verapamil of 1 ml/kg 30 min before ligation, preparation of the hypoxia/reoxygenation model is the same as Normal Control Group. […]
Preparation of the Model:
(§1) Intraperitoneal injecting 6% Urethane with 20 ml/kg to anaesthetize the animal, fixing the animal on operating table in supine position; being connected with the electrocardiograph to detect the limb II lead electrocardiogram, tracheal intubating and connecting the animal with respirators, taking continuous positive end-expiratory pressure with tidal volume of 6 ml/200 g, frequency of 55/min and breathing ratio of 2:1. Carrying out thoracotomy on the gap between the forth and the fifth ribs of the left border of sternum, separating the ribs and removing the pericardium. Ligating at the left anterior descending coronary artery by using 6/0 silk suture by the sign of left auricle lower margin, and setting a piece of polyethylene pipe with diameter of 1 mm between the ligation silk suture and blood vessel. Ligating the silk suture to press the left anterior descending coronary artery by the polyethylene pipe and cause myocardial ischemia. Taking part of myocardium becoming grey and electrocardiogram S-T segment raising as the sign of that the left anterior descending coronary artery is ligated successfully. Taking out the polyethylene pipe carefully to cause the reperfusion. Verifying the success of reoxygenation by reactive hyperemia of ischemia area and the descending of the raised S-T segment by ½. Reoxygenation for 30 minutes, then sampling blood from abdominal aorta to prepare serum which is used to measure the biochemical index (measuring the content of CK, LDH, MDA, SPD according to the Reagent kits Instruction).
(§2) Rat's heart was taken and after being blooded, the residual blood in the ventricle was cleaned by normal saline to weight the weight of whole heart. Fat was removed, the heart was crosscut into 4˜5 pieces and was put into a tube, to be carried out NBT dye at 37° C. (dying the normal tissue rather than the ischemic tissue), taking photographs. The ischemic area of the myocardium was cut to take a weighing, and then the myocardial infarct size (MIS) was calculated by the ratio of weight of the ischemic area of the myocardium to whole heart weight, which was present by percentage.

[2] = system: ischemia/reperfusion damaged rat; assay: Therapeutic administration, ischemia/reperfusion (LAD ligation) rat model; format: in vivo, SD rat; settings: therapeutic i.v. 5 minutes after ligation; for CK / LDH / MDA / SOD: rat serum
Protocol: as §1, §2
The drug was intravenously injured on the tail 5 minutes after ligation of LAD, then reperfusion was carried out for 30 min 30 minutes after ligation of LAD. Heart was taken after sampling blood from abdominal aorta. The biochemical index and the myocardial infarction size were measure by using the above method.

[3] = system: primary culture myocardium cell damaged by hypoxia/reoxygenation; assay: Anti-hypoxia/reoxygenation injury effect on primary culture myocardium cell (MTT); format: cell-based, Neonatal SD rat
Excerpt: Take ventricle from Neonatal SD rat, wash with D-Hank's and cut to small pieces, digest with collagenase II to obtain the myocardium cell and fibroblast, which are cultivated with high glucose DMEM (dmem-h-15) culture medium containing 15% fetal bovine serum. Remove the fibroblast through differential adhesion and chemistry method, and inoculate myocardium cell on the 96-well plates.
2.1.3 Anti-Hypoxia/Reoxygenation Injury Effect of CMPC to Primary Culture Myocardium Cell.
Cell cultivation method is the same as that in 2.1.1
Preparation of model: Preparing the model by using the myocardium cell cultured for 48˜72 h, dividing the cell on the culture plate to following groups: Control Group, Model Group, Verapamil Group (2, 0.4, 0.08 mg/l final concentration) and CMPM Group (final concentration of 50, 10, 2, 0.4, 0.08, 0.016, 0.0032 mg/l), 3 wells for every group. Except the Control Group, the other groups are prepared by following method: placing the monolayer myocardium cell on center of culture plate on low glucose medium (containing Verapamil or CMPM with corresponding concentration), then placing the culture plate into the vacuum drying machine, filling nitrogen, and hermetically culturing, causing myocardial injury after oxygen lack for 15 hours, then being cultured for 1 hour by high glucose DMEM medium (95% atmosphere and 5% CO2) to cause reoxygention injury. Measuring the absorbance value at 540 nm by using MTT method, and the same as above, calculating the protective rate to figure out EC50.

KGAWSNVLRGMGGAF [CMPC, Lys-Gly-Ala-Trp-Ser-Asn-Val-Leu-Arg-Gly-Met-Gly-Gly-Ala-Phe]
MIS (myocardial infarct size) ([1]; Dosage 0.2 mg/kg): 4.67 ± 0.74 %
MIS (myocardial infarct size) ([1]; Dosage 0.6 mg/kg): 4.17 ± 0.62 %
MIS (myocardial infarct size) ([1]; Dosage 1.8 mg/kg): 3.47 ± 1.08 %
CK ([1]; Dosage 0.2 mg/kg): 2.238 ± 0.274 U/ml
LDH ([1]; Dosage 0.2 mg/kg): 7555.34 ± 600.16 U/L
MDA ([1]; Dosage 0.2 mg/kg): 4.642 ± 0.978 nmol/mL
SOD ([1]; Dosage 0.2 mg/kg): 134.85 ± 12.55 U/ml
CK ([1]; Dosage 0.6 mg/kg): 2.172 ± 0.329 U/ml
LDH ([1]; Dosage 0.6 mg/kg): 7531.58 ± 414.64 U/L
MDA ([1]; Dosage 0.6 mg/kg): 4.847 ± 0.570 nmol/mL
SOD ([1]; Dosage 0.6 mg/kg): 130.43 ± 10.55 U/ml
CK ([1]; Dosage 1.8 mg/kg): 2.045 ± 0.358 U/ml
LDH ([1]; Dosage 1.8 mg/kg): 7453.80 ± 366.11 U/L
MDA ([1]; Dosage 1.8 mg/kg): 4.371 ± 0.47 nmol/mL
SOD ([1]; Dosage 1.8 mg/kg): 135.67 ± 8.64 U/ml
CK ([2]; Dosage 0.2 mg/kg): 2.026 ± 0.532 U/ml
LDH ([2]; Dosage 0.2 mg/kg): 7763.83 ± 770.70 U/L
MDA ([2]; Dosage 0.2 mg/kg): 4.878 ± 0.430 nmol/mL
SOD ([2]; Dosage 0.2 mg/kg): 140.59 ± 20.28 U/ml
CK ([2]; Dosage 0.6 mg/kg): 1.748 ± 0.573 U/ml
LDH ([2]; Dosage 0.6 mg/kg): 7034.59 ± 1167.17 U/L
MDA ([2]; Dosage 0.6 mg/kg): 4.862 ± 0.468 nmol/mL
SOD ([2]; Dosage 0.6 mg/kg): 145.41 ± 10.56 U/ml
CK ([2]; Dosage 1.8 mg/kg): 1.707 ± 0.332 U/ml
LDH ([2]; Dosage 1.8 mg/kg): 7233.69 ± 297.69 U/L
MDA ([2]; Dosage 1.8 mg/kg): 4.685 ± 0.714 nmol/mL
SOD ([2]; Dosage 1.8 mg/kg): 143.41 ± 12.14 U/ml
MIS (myocardial infarct size) ([2]; Dosage 0.2 mg/kg): 3.95 ± 0.97 %
MIS (myocardial infarct size) ([2]; Dosage 0.6 mg/kg): 4.20 ± 0.78 %
MIS (myocardial infarct size) ([2]; Dosage 1.8 mg/kg): 3.68 ± 1.39 %
% (protective rate) ([3]; Plate 1, Dosage 0.0032 mg/L): 4.11%
A540 ([3]; Plate 1, Dosage 0.0032 mg/L): 0.496 ± 0.031
% (protective rate) ([3]; Plate 1, Dosage 0.016 mg/L): 14.69%
A540 ([3]; Plate 1, Dosage 0.016 mg/L): 0.526 ± 0.032
% (protective rate) ([3]; Plate 1, Dosage 0.08 mg/L): 26.09%
A540 ([3]; Plate 1, Dosage 0.08 mg/L): 0.558 ± 0.025
% (protective rate) ([3]; Plate 1, Dosage 0.4 mg/L): 38.95%
A540 ([3]; Plate 1, Dosage 0.4 mg/L): 0.594 ± 0.043
% (protective rate) ([3]; Plate 1, Dosage 2 mg/L): 28.91%
A540 ([3]; Plate 1, Dosage 2 mg/L): 0.566 ± 0.057
% (protective rate) ([3]; Plate 1, Dosage 10 mg/L): 17.74%
A540 ([3]; Plate 1, Dosage 10 mg/L): 0.534 ± 0.033
% (protective rate) ([3]; Plate 1, Dosage 50 mg/L): 9.05%
A540 ([3]; Plate 1, Dosage 50 mg/L): 0.510 ± 0.030
% (protective rate) ([3]; Plate 2, Dosage 0.0032 mg/L): 20.37%
A540 ([3]; Plate 2, Dosage 0.0032 mg/L): 0.543 ± 0.052
% (protective rate) ([3]; Plate 2, Dosage 0.016 mg/L): 22.85%
A540 ([3]; Plate 2, Dosage 0.016 mg/L): 0.550 ± 0.024
% (protective rate) ([3]; Plate 2, Dosage 0.08 mg/L): 48.52%
A540 ([3]; Plate 2, Dosage 0.08 mg/L): 0.622 ± 0.047
% (protective rate) ([3]; Plate 2, Dosage 0.4 mg/L): 40.20%
A540 ([3]; Plate 2, Dosage 0.4 mg/L): 0.599 ± 0.032
% (protective rate) ([3]; Plate 2, Dosage 2 mg/L): 30.99%
A540 ([3]; Plate 2, Dosage 2 mg/L): 0.573 ± 0.052
% (protective rate) ([3]; Plate 2, Dosage 10 mg/L): 19.36%
A540 ([3]; Plate 2, Dosage 10 mg/L): 0.540 ± 0.026
% (protective rate) ([3]; Plate 2, Dosage 50 mg/L): 18.12%
A540 ([3]; Plate 2, Dosage 50 mg/L): 0.536 ± 0.036
% (protective rate) ([3]; Plate 3, Dosage 0.0032 mg/L): 15.86%
A540 ([3]; Plate 3, Dosage 0.0032 mg/L): 0.763 ± 0.018
% (protective rate) ([3]; Plate 3, Dosage 0.016 mg/L): 24.20%
A540 ([3]; Plate 3, Dosage 0.016 mg/L): 0.777 ± 0.014
% (protective rate) ([3]; Plate 3, Dosage 0.08 mg/L): 38.05%
A540 ([3]; Plate 3, Dosage 0.08 mg/L): 0.800 ± 0.020
% (protective rate) ([3]; Plate 3, Dosage 0.4 mg/L): 47.29%
A540 ([3]; Plate 3, Dosage 0.4 mg/L): 0.815 ± 0.014
% (protective rate) ([3]; Plate 3, Dosage 2 mg/L): 64.26%
A540 ([3]; Plate 3, Dosage 2 mg/L): 0.843 ± 0.032
% (protective rate) ([3]; Plate 3, Dosage 10 mg/L): 34.43%
A540 ([3]; Plate 3, Dosage 10 mg/L): 0.790 ± 0.023
% (protective rate) ([3]; Plate 3, Dosage 50 mg/L): 14.96%
A540 ([3]; Plate 3, Dosage 50 mg/L): 0.761 ± 0.019
